System: mUC patients (IMvigor210)
Test: Association between mutations (FMOne panel, single genes and pathways) and response to atezolizumab or TMB
Assay type: in vivo, human
Source text: In addition, DNA was extracted from FFPE 10 micron sections from 293 patients and submitted to a Clinical Laboratory Improvement Amendments (CLIA)-certified, New York State-accredited, and College of American Pathologists (CAP)-accredited laboratory (Foundation Medicine, Cambridge, Mass.) for targeted next-generation sequencing (NGS)-based genomic profiling. Adaptor-ligated DNA underwent hybrid capture for all coding exons of 395 cancer-related genes plus select introns from 31 genes frequently rearranged in cancer (FMOne panel).
Captured libraries were sequenced to a median exon coverage depth of >500× (DNA) or 3M unique reads (RNA) using Agilent SURESELECT® v5 kit at 51 Mb on the ILLUMINA® HISEQ® 2500, and resultant sequences were analyzed for base substitutions, small insertions and deletions (indels), copy number alterations (focal amplifications and homozygous deletions), and gene fusions/rearrangements, as previously described (Frampton et al. Nat. Biotechnol. 31:1023-1031, 2013). Frequent germline variants from the 1000 Genomes Project (dbSNP142) were removed. To maximize mutation-detection accuracy (sensitivity and specificity) in impure clinical specimens, the test was previously optimized and validated to detect base substitutions at a ≥5% mutant allele frequency (MAF), indels with a ≥10% MAF with ≥99% accuracy, and fusions occurring within baited introns/exons with >99% sensitivity (Frampton et al. supra). Known confirmed somatic alterations deposited in the Catalog of Somatic Mutations in Cancer (COSMIC v62) are called at allele frequencies ≥1% (Forbes et al. Nucleic Acids Res. 39:D945-D950, 2011).
From the FMOne panel, tumor mutational burden was calculated from the number of short variants in coding regions (substitutions and indels, including synonymous alterations) that were detected. Known and predicted germline alterations as well as known somatic and likely somatic variants are not counted. The mutation burden per Mb is the number of mutations counted divided by the Mb of genomic target territory of the FMOne panel. Unless otherwise indicated, FMOne-based mutation burden was used for all analyses around mutation burden.
For each gene, a patient was called mutant if a known or likely mutation was reported for that gene. For pathway-based analyses, a patient was called mutant in a pathway if any gene within the pathway was reported to have a known or likely mutation. Otherwise, a patient was considered to be non-mutant. A Fisher's Exact Test was used to determine whether the number of mutant patients differed between responders (complete and partial responders) and non-responders (stable and progressive disease). An association between mutation status and mutation burden was tested using a Wilcoxon Rank Sum Test. Single gene p-values were corrected for the number of tests performed using Benjamini and Hochberg adjustment. For pathway-based analyses, nominal p-values are reported.

## atezolizumab: anti-PD-L1 antibody (Genentech), CAS Registry Number 1422185-06-5, also known as MPDL3280A
IKBKE mutation status vs response (CR/PR vs. SD/PD)
  estimate: 0
INPP4B mutation status vs response (CR/PR vs. SD/PD)
  estimate: 0.00E+00
IRS2 mutation status vs response (CR/PR vs. SD/PD)
  estimate: 4.96E−01
JAK1 mutation status vs response (CR/PR vs. SD/PD)
  estimate: 0.00E+00
JAK2 mutation status vs response (CR/PR vs. SD/PD)
  estimate: 3.33E−01
JUN mutation status vs response (CR/PR vs. SD/PD)
  estimate: Inf
KDM5A mutation status vs response (CR/PR vs. SD/PD)
  estimate: Inf
KDM5C mutation status vs response (CR/PR vs. SD/PD)
  estimate: 3.30E−01
KDM6A mutation status vs response (CR/PR vs. SD/PD)
  estimate: 0.5153
KDR mutation status vs response (CR/PR vs. SD/PD)
  estimate: 0
KEAP1 mutation status vs response (CR/PR vs. SD/PD)
  estimate: 0
KEL mutation status vs response (CR/PR vs. SD/PD)
  estimate: 0
KIT mutation status vs response (CR/PR vs. SD/PD)
  estimate: 0.3333
KRAS mutation status vs response (CR/PR vs. SD/PD)
  estimate: 1.346
LRP1B mutation status vs response (CR/PR vs. SD/PD)
  estimate: 0.1555
LRP6 mutation status vs response (CR/PR vs. SD/PD)
  estimate: 0
LYN mutation status vs response (CR/PR vs. SD/PD)
  estimate: Inf
LZTR1 mutation status vs response (CR/PR vs. SD/PD)
  estimate: 0
MAGI2 mutation status vs response (CR/PR vs. SD/PD)
  estimate: Inf
MAP2K4 mutation status vs response (CR/PR vs. SD/PD)
  estimate: Inf
MAP3K1 mutation status vs response (CR/PR vs. SD/PD)
  estimate: 0.3333
MAP3K13 mutation status vs response (CR/PR vs. SD/PD)
  estimate: Inf
MCL1 mutation status vs response (CR/PR vs. SD/PD)
  estimate: 0.8339
MDM2 mutation status vs response (CR/PR vs. SD/PD)
  estimate: 0.4704
MDM4 mutation status vs response (CR/PR vs. SD/PD)
  estimate: Inf
MEN1 mutation status vs response (CR/PR vs. SD/PD)
  estimate: 0
MET mutation status vs response (CR/PR vs. SD/PD)
  estimate: 0
MITF mutation status vs response (CR/PR vs. SD/PD)
  estimate: Inf
MLL2 mutation status vs response (CR/PR vs. SD/PD)
  estimate: 1.185
MLL3 mutation status vs response (CR/PR vs. SD/PD)
  estimate: 0
MPL mutation status vs response (CR/PR vs. SD/PD)
  estimate: 0
MSH2 mutation status vs response (CR/PR vs. SD/PD)
  estimate: 0.6678
MSH6 mutation status vs response (CR/PR vs. SD/PD)
  estimate: 1.346
MST1R mutation status vs response (CR/PR vs. SD/PD)
  estimate: Inf
MTOR mutation status vs response (CR/PR vs. SD/PD)
  estimate: 0.3333
MUTYH mutation status vs response (CR/PR vs. SD/PD)
  estimate: 0.6678
MYC mutation status vs response (CR/PR vs. SD/PD)
  estimate: 1.354
MYCL1 mutation status vs response (CR/PR vs. SD/PD)
  estimate: 0.6605
MYCN mutation status vs response (CR/PR vs. SD/PD)
  estimate: 0.2167
MYST3 mutation status vs response (CR/PR vs. SD/PD)
  estimate: 0.6642
NBN mutation status vs response (CR/PR vs. SD/PD)
  estimate: 0
NCOR1 mutation status vs response (CR/PR vs. SD/PD)
  estimate: 1.179
NF1 mutation status vs response (CR/PR vs. SD/PD)
  estimate: 0.4962
NF2 mutation status vs response (CR/PR vs. SD/PD)
  estimate: 0.3297
NFE2L2 mutation status vs response (CR/PR vs. SD/PD)
  estimate: 0.3333
NFKBIA mutation status vs response (CR/PR vs. SD/PD)
  estimate: Inf
NKX2−1 mutation status vs response (CR/PR vs. SD/PD)
  estimate: Inf
NOTCH1 mutation status vs response (CR/PR vs. SD/PD)
  estimate: 1.005
NOTCH2 mutation status vs response (CR/PR vs. SD/PD)
  estimate: 0.6678
NOTCH3 mutation status vs response (CR/PR vs. SD/PD)
  estimate: Inf
NOTCH4 mutation status vs response (CR/PR vs. SD/PD)
  estimate: 0.6678
NRAS mutation status vs response (CR/PR vs. SD/PD)
  estimate: 0
NTRK1 mutation status vs response (CR/PR vs. SD/PD)
  estimate: 0
NTRK3 mutation status vs response (CR/PR vs. SD/PD)
  estimate: Inf
NUP93 mutation status vs response (CR/PR vs. SD/PD)
  estimate: 0.6678
PALB2 mutation status vs response (CR/PR vs. SD/PD)
  estimate: 0.6678
PARK2 mutation status vs response (CR/PR vs. SD/PD)
  estimate: Inf
PARP4 mutation status vs response (CR/PR vs. SD/PD)
  estimate: Inf
PAX5 mutation status vs response (CR/PR vs. SD/PD)
  estimate: Inf
PBRM1 mutation status vs response (CR/PR vs. SD/PD)
  estimate: 0.1081
PDCD1LG2 mutation status vs response (CR/PR vs. SD/PD)
  estimate: 0.6678
PDGFRA mutation status vs response (CR/PR vs. SD/PD)
  estimate: 0
PIK3C2B mutation status vs response (CR/PR vs. SD/PD)
  estimate: Inf
PIK3CA mutation status vs response (CR/PR vs. SD/PD)
  estimate: 0.7935
PIK3CB mutation status vs response (CR/PR vs. SD/PD)
  estimate: Inf
PIK3CG mutation status vs response (CR/PR vs. SD/PD)
  estimate: 0
PIK3R1 mutation status vs response (CR/PR vs. SD/PD)
  estimate: 0.3297
PIK3R2 mutation status vs response (CR/PR vs. SD/PD)
  estimate: 0
PMS2 mutation status vs response (CR/PR vs. SD/PD)
  estimate: 0
POLE mutation status vs response (CR/PR vs. SD/PD)
  estimate: 0
PRKCI mutation status vs response (CR/PR vs. SD/PD)
  estimate: 0.6678
PRSS8 mutation status vs response (CR/PR vs. SD/PD)
  estimate: 0
PTCH2 mutation status vs response (CR/PR vs. SD/PD)
  estimate: 0
PTEN mutation status vs response (CR/PR vs. SD/PD)
  estimate: 0.3224
PTPN11 mutation status vs response (CR/PR vs. SD/PD)
  estimate: Inf
PTPRD mutation status vs response (CR/PR vs. SD/PD)
  estimate: Inf
RAD50 mutation status vs response (CR/PR vs. SD/PD)
  estimate: Inf
RAD51C mutation status vs response (CR/PR vs. SD/PD)
  estimate: 0
RAD51 mutation status vs response (CR/PR vs. SD/PD)
  estimate: Inf
RAF1 mutation status vs response (CR/PR vs. SD/PD)
  estimate: 0.5846
RB1 mutation status vs response (CR/PR vs. SD/PD)
  estimate: 0.6832
RBM10 mutation status vs response (CR/PR vs. SD/PD)
  estimate: 0.7743
REL mutation status vs response (CR/PR vs. SD/PD)
  estimate: 0
RICTOR mutation status vs response (CR/PR vs. SD/PD)
  estimate: 0.5352
RNF43 mutation status vs response (CR/PR vs. SD/PD)
  estimate: 0
ROS1 mutation status vs response (CR/PR vs. SD/PD)
  estimate: Inf
RPA1 mutation status vs response (CR/PR vs. SD/PD)
  estimate: Inf
RPTOR mutation status vs response (CR/PR vs. SD/PD)
  estimate: Inf
RUNX1 mutation status vs response (CR/PR vs. SD/PD)
  estimate: 0.3333
SDHA mutation status vs response (CR/PR vs. SD/PD)
  estimate: Inf
SETD2 mutation status vs response (CR/PR vs. SD/PD)
  estimate: 1.691
SF3B1 mutation status vs response (CR/PR vs. SD/PD)
  estimate: 0.1646
SLIT2 mutation status vs response (CR/PR vs. SD/PD)
  estimate: Inf
SMAD2 mutation status vs response (CR/PR vs. SD/PD)
  estimate: Inf
SMAD3 mutation status vs response (CR/PR vs. SD/PD)
  estimate: Inf
SMAD4 mutation status vs response (CR/PR vs. SD/PD)
  estimate: Inf
SMARCA4 mutation status vs response (CR/PR vs. SD/PD)
  estimate: 0.548
SOX2 mutation status vs response (CR/PR vs. SD/PD)
  estimate: Inf
SOX9 mutation status vs response (CR/PR vs. SD/PD)
  estimate: Inf
SOX10 mutation status vs response (CR/PR vs. SD/PD)
  estimate: Inf

Source: US11473151B2, “Diagnostic and therapeutic methods for cancer” (Genentech, Inc., priority 2017, dated 2022)
